Results from patent publication US20230287316A1, “INTER-ORGAN PLATFORM WITH TISSUE-SPECIFIC NICHES FOR A MICROPHYSIOLOGICAL SYSTEM ON A CHIP” (THE TRUSTEES OF COLUMBIA UNIVERSITY IN THE CITY OF NEW YORK, priority 2020, published 2023).
Structures can show the parent of a compound that is named as a salt.

Experiments:
[1] = system: human engineered cardiac tissue; test: Validation of engineered cardiac tissue with drugs of known cardiac effects: beat frequency; format: cell-based
From the text: Levels were normalized first to β actin and subsequently to the tissue engineered bone control (mean ± s.d., n = 3). […] All scale bars: 100 µm.
The cardiac tissue model was generated from iPS-derived cardiomyocytes and fibroblasts encapsulated in fibrin hydrogel, as in our previous studies. The tissue was formed between two elastic pillars causing cell elongation and alignment, and subjected to electrical stimulation to synchronously contract and work against the pillars.
Specifically, linsitinib was dissolved at a 10 mM concentration in DMSO (Corning) and mixed in with the respective cell medium at a […] concentration unless otherwise noted. Vehicle treatments involved just the addition of DMSO at identical volumes as a control. Tissues were randomly assigned to experimental groups. Medium was changed every day.
To measure the cardiac contractility online, we took contractility videos of the tissues that were analyzed using the native MATLAB code we previously developed. Tissue contractility was measured by tracking the change in tissue area as a function of time. Acquired video frames were inverted and an automated intensity threshold was used to identify cell location in the video frame. First, a baseline time point in the video corresponding to a relaxed tissue state was selected. Absolute differences in cell area from the baseline frame were then calculated to create a time course of cell area changes over time. The resulting time courses were analyzed using a native MATLAB (MATHWorks) automated peak finding algorithm to determine locations of maximum cell contractions in the time profiles. Beat period lengths were determined from the length of time between the pairs of local maxima, and the beat frequencies were determined by inverting beat periods. The rate of proarrhythmic events was calculated by the ratio of the number of proarrhythmic events over the total number of beats.

cardiac muscle = test: Drug distribution with functional matching in InterOrgan platform: cardiac beat frequency; format: cell-based, human; conditions: 10 µM introduced into the reservoir at t = 0; assessed at 24 and 72 hours
Liver tissues = test: Doxorubicin-induced toxicity: liver function assays; format: cell-based, human; conditions: 30 µM Dox, 72 hours
Protocol: Liver function assays: To assess liver function, […] and urea secretion using a Human ELISA kit (Bethyl, E88-129) and a Urea Nitrogen Test Kit (Fisher Scientific, SB-0580-250), respectively. Comparing these samples to the provided standard, concentrations of albumin and urea were calculated and compared to the secretion for each tissue at Day 0. Assays were performed according to the manufacturer’s instructions.

Bone tissues = test: Doxorubicin-induced toxicity: bone function assays; format: cell-based, human; conditions: 30 µM Dox, 72 hours
Protocol: Bone function assays: To assess the bone’s ability to remodel its matrix, supernatant samples were analyzed for […], (TRAP, Kamiya Biomedical Company, KT-008) and bone sialoprotein (Human Bone Sialoprotein ELISA Kit, Mybiosource, cat. no. MBS261861) after 28 days of culture. These assays were performed according to the manufacturer’s instructions.

[2] = system: engineered cardiac tissues; test: Doxorubicin-induced toxicity: heart function assays; format: cell-based, human; conditions: 30 µM Dox, 72 hours
Protocol: Heart function assays: Cardiac excitability, force, and beat rate were obtained using our previously established protocols. Cardiac troponin secretion was determined using the Human Cardiac Troponin I ELISA Kit (Abcam, ab200016) according to the manufacturer’s instructions.

[3] = system: all tissues in the InterOrgan platform; test: Doxorubicin-induced toxicity in InterOrgan platform: viability and metabolism of all tissues; format: cell-based, human; conditions: 30 µM Dox, 72 hours after exposure
Protocol: After the acute dose, each engineered tissue was assessed for cell viability, glucose consumption, and mitochondrial activity 72 hours after exposure (FIGS. 13D-F). Functional features for each engineered tissue 72 hours after acute exposure (n=3-5) are shown in FIGS. 13G-J. Over a thousand miRNAs from control and Dox-exposed cardiac tissues were differentially expressed under Isolated and InterOrgan conditions (FIG. 13K).
Treatment with 30 µM Dox, corresponding to the clinically administered cumulative dosage shown to induce cardiotoxicty, was delivered to tissues in the InterOrgan platform through the vascular channel and compared against the Isolated condition (FIG. 13A). […] We also detected decreased cardiac contractility and increased troponin release, both clinical measures of cardiac cell damage (FIG. 13G).
Metabolic Assays: Glucose, lactate, glutamate and glutamine were measured in parallel using the bioluminescent Glucose-Glo™ (Promega, cat. no. J6021), Lactate-Glo™ (Promega, cat. No. J5021), Glutamine/Glutamate-Glo™ (Promega, cat. no. J8021) and Glutamate-Glo™ (Promega, cat. no. J7021) assays according to the manufacturer’s protocols.

skin tissues = test: Doxorubicin-induced toxicity: skin functional assays; format: cell-based, human; conditions: 30 µM Dox, 72 hours; both Isolated and InterOrgan cultures
Protocol: Skin functional assays: For drug-induced toxicity studies, electrical current was run through the tissues by placing electrodes on either side of the skin tissue and the change in resistance was subsequently measured and read as a function of the barrier. All tissues were analyzed using the same electrode holder setup to standardize the positions of electrodes with respect to the tissue. To analyze the transport of molecules through the skin barrier, Fluorescein (FITC, ThermoFisher, D3306) powder was added to the epidermis of skin tissues. After 3 hrs, 100 µl of supernatant from the dermal region below the skin tissue was sampled and assayed on a plate reader (BioTex Synergy HTX).

[4] = FITC circulation in the platform (absorption and diffusive transport); format: physicochemical
Protocol: We also circulated fluorescent FITC, which has similar chemical properties as linsitinib including hydrophobicity and molecular weight, and measured its distribution across the 2 tissue chambers in the platform (FIG. 26F). The simulated and empirical results agreed: FITC also reached uniform concentration in all areas of the platform in within 12 hours, after reaching equilibrium across both models at approximately 6 hours. This is significant, since linsitinib is known to have a short half-life of approximately 5 hours. The delayed drug distribution by diffusion through tissues observed here has been documented as an issue for treating solid tumors in patients, with chemotherapeutic concentrations decreasing exponentially with distance from tumor blood vessels and often being limited to the peripheries of tumors even 12 hours after injection.
Fluorescein isothiocyanate (FITC, 10 mM in DMSO; Sigma Aldrich) was circulated for the integrated platform to determine potential hydrophobic small molecule absorption, given its physical and chemical properties. FITC was added at a concentration of 10 µM to 8 mL of 1:1 bone tumor/cardiac mixed media and introduced into the platform. The control was the FITC-containing media in a standard 24-multiwell plate (Corning). Aliquots from the reservoir, bone tumor, and cardiac tissue chambers were taken at 12, 24, 48 and 72 hours and measured for fluorescent signal using a spectrophotometer (Biotek).
Measurements of FITC concentrations were used to estimate the spread of linsitinib within the platform via diffusive circulating transport. Four independent platforms were filled with 8 mL of 1:1 mixed media each, after which 10 µM of FITC was injected into the reservoir. The platforms were connected to the peristaltic pumps run at 100 rpm to generate physiologically relevant fluid flow rate and shear stress. Aliquots were taken from the reservoir, bone and cardiac chambers at 0, 2, 4, 6, and 12 hours post injection, and assayed for fluorescence signal on a spectrophotometer (Biotek).

endothelial barrier = test: Endothelial barrier permeability response to thrombin; format: cell-based, human; conditions: endothelialized mesh inserts under flow shear
From the text: Vascularization The generation of a patient-specific vascular barrier is critical for functionally connecting tissue compartments while maintaining each tissues, as well as vascular perfusion, under optimal culture conditions resulting in phenotypic stability and maturation, analogous to the separation of interstitial and intravascular compartments in vivo. Transwell mesh inserts in each tissue chamber were coated with fibronectin and seeded with ECs and supporting MSCs with 2:1 ratio (FIG. 36). A stable endothelial barrier was then established by exposure to flow shear (ramped up from 1 to 5 dyn/cm^2 over 5 days of culture). To physiologically integrate engineered tumors and host tissues by vascular flow, the endothelialized membrane needs to separate the interstitial and intravascular spaces, enabling vasculature-mediated tissues crosstalk. […] Such response to an inflammatory agent is critical for metastatic extravasation of cancer cells. The endothelial barrier allowed optimization of culture conditions for each tissue - akin to compartmentalization in the body that avoids the use of “common” media. This approach promoted long term culture (4-12 weeks) of matured tissues, with on-line readouts (cell tracking, viability, function) in longitudinal and dynamic studies. […]

[5] = isoproterenol dose-response study
[6] = 10 µM injected into the reservoir

With `CCCCc1oc2ccccc2c1C(=O)c1cc(I)c(OCCN(CC)CC)c(I)c1` [Amiodarone, amiodarone hydrochloride] the beat frequency ([1]; amiodarone 2.418 µM over 48 hours) was “expected decreases in the beat frequency”.

In the case of `Cn1c(=O)c2c(ncn2C)n(C)c1=O` [caffeine], the beat frequency ([1]; caffeine 50 mM) is reported as “physiologic increases in beat frequency”.

For `CN(CCOc1ccc(NS(C)(=O)=O)cc1)CCc1ccc(NS(C)(=O)=O)cc1` [dofetilide], the “beat rate of cardiac muscle” value (cardiac muscle) was “decreased”.

With `COc1cccc2c1C(=O)c1c(O)c3c(c(O)c1C2=O)C[C@@](O)(C(=O)CO)C[C@@H]3O[C@H]1C[C@H](N)[C@H](O)[C@H](C)O1` [doxorubicin] the albumin (Liver tissues) was “decreased”, the urea production (Liver tissues) was “unaffected” and the TRAP responses (Bone tissues) was “stable”. The cellularity (Bone tissues) was “decreased”, the cardiac contractility [2] was “decreased” and the troponin release [2] was “increased”. For the same molecule, the Cell viability [3] was “significantly decreased”, the glucose consumption [3] was “significantly decreased” and the mitochondrial activity [3] was “significantly decreased”. The beat frequency ([1]; doxorubicin 1 µM over 72 hours) was “initially increased, and then decreased following prolonged exposure to the drug”, the diffusional permeability (skin tissues) was “increased” and the electrical resistance (skin tissues) was “decreased”.

With `CNC[C@H](O)c1ccc(O)c(O)c1` [epinephrine] the “beat rate of cardiac muscle” value (cardiac muscle) was “increased”.

In the case of `CC(C)NCC(O)c1ccc(O)c(O)c1` (stereo not shown) [isoproterenol, isoproterenol hydrochloride], the “EC50 (beat frequency)” value [1, 5] is reported as “expected values of EC50” and the beat frequency [1, 5] is reported as “increased”.

In the case of Fluorescein isothiocyanate [FITC], the “absorption by the platform” value ([4]; 10 µM circulated for 72 hours, polysulfone platform compared to multi-well plates) is reported as “without any measurable absorption by the platform”, the “time to equilibrium across both models” value [4, 6] is reported as “approximately 6 hours” and the “time to uniform concentration in all areas of the platform” value [4, 6] is reported as at most 12 h.

In the case of thrombin, the barrier permeability (endothelial barrier) is reported as “physiologic increase in barrier permeability”.
